Key:
MCF-7 cells = experiment: Cytotoxicity test (MTT cell viability); format: cell-based, human; conditions: 0 to 100 µM, 24 hours incubation plus 48 hours growth
Procedure: (§1) The human MCF-7 breast adenocarcinoma and murine MC3T3-E1 embryonic fibroblast cell lines were growth in RPMI 1640 and DMEM medium, respectively, supplemented with 10% heated inactivated foetal bovine serum (FBS), 1% L-glutamine, 1% penicillin-streptomycin-amphotericin B mixture. All cells were maintained at 37 °C in humidified 5% CO2 atmosphere and splitted every 2-3 day.
(§2) MCF-7 and MC3T3-E1 cells were plated in 96-well flat bottomed microassay plates (1 × 10^4 cells/well) and grown for 24 hours. After complete adhesion, (arginyl)7-maltotriosyl-N-acetyl-amino-dodecanoic acid or 2 kDa polyethylenimine (PEI) as control were added to the culture media at increasing concentrations: from 0 to 100 µM. The cells were incubated for 24 hours at 37°C and then the medium was discarded by aspiration and replaced with 200 µl of fresh medium. The cells were grown for further 48 hours. Twenty microliters of 5 mg/mL of 3-(4,5-dimethylthiazol-2-yl)-2,5-diphenyltetrazolium bromide (MTT) in D-PBS were added to each well. […] The plates were gently shaken for 30 min and absorbance was measured at 570 nm with a reference wavelength of 630 nm. The cell viability was expressed as a percent viability of treated cells against untreated cells used as control. […]

MC3T3-E1 cells = experiment: Cytotoxicity test (MTT cell viability); format: cell-based, murine; conditions: 0 to 100 µM, 24 hours incubation plus 48 hours growth
Procedure: as §1, §2

“(arginyl)7-maltotriosyl-N-acetyl-amino-dodecanoic acid” was tested, and the IC50 (MCF-7 cells) was over 100 µM and the IC50 (MC3T3-E1 cells) was over 100 µM.
